The record followed here is PubChem BioAssay (NCI).

Some test systems named below: A549 NSCLC; HCT-15 colon; SR leukemia; M14 melanoma; HCT-116 colon; NCI-H226 lung; UO-31 renal; CCRF-CEM leukemia; A498 renal; SK-MEL-2 melanoma; SN12C renal; MCF7 breast; EKVX NSCLC; HCC-2998 colon; SK-MEL-5 melanoma; TK-10 renal; SF-268 CNS; SF-539 CNS; ACHN renal; UACC-62 melanoma.
Holding throughout (assay): inhibition of tumour cell growth, NCI panel, 48 h

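Results reflect a 48-hour exposure of cells in 96-well plates to compound at five concentrations. TGI is the concentration that stops growth completely.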 Where only a bound is given, the exact number is not on record here.

Take `COc1cccc(C(NC2=NCCC=N2)c2cc3c(cc2O)OCO3)c1O` (stereo unspecified): the TGI with A549 NSCLC was over 100 µM; in the experiment on HCT-15 colon it was 27.7 µM; in the experiment on SR leukemia, 34.9 µM; with M14 melanoma, over 100 µM; in the experiment with HCT-116 colon, 62.5 µM; with NCI-H226 lung it was over 100 µM. The TGI in the experiment on UO-31 renal is over 100 µM; in the experiment with CCRF-CEM leukemia, 32.8 µM; with A498 renal, 78.8 µM; in the experiment on SK-MEL-2 melanoma it was 72.5 µM; in the experiment on SN12C renal it was 41.4 µM; with MCF7 breast, 35.3 µM. Further, the TGI in the experiment with EKVX NSCLC was over 100 µM; in the experiment on HCC-2998 colon, 46.9 µM; in the experiment with SK-MEL-5 melanoma, over 100 µM; in the experiment with TK-10 renal, over 100 µM; in the experiment on SF-268 CNS, over 100 µM; in the experiment on SF-539 CNS it was 46.8 µM. The TGI in the experiment with ACHN renal was over 100 µM; in the experiment on UACC-62 melanoma it was 59 µM.

Consider `FC(F)(F)c1cccnc1Sc1nc2ccccc2s1`, for which the TGI in the experiment with A549 NSCLC, in the experiment with HCT-15 colon, in the experiment on SR leukemia, in the experiment on M14 melanoma, in the experiment with HCT-116 colon and in the experiment with NCI-H226 lung was over 100 µM in each case. Also, the TGI in the experiment with UO-31 renal, in the experiment on CCRF-CEM leukemia, in the experiment on A498 renal, with SK-MEL-2 melanoma, in the experiment with SN12C renal and in the experiment on MCF7 breast was over 100 µM in each case. Also, the TGI in the experiment on EKVX NSCLC, with HCC-2998 colon, with SK-MEL-5 melanoma, in the experiment with TK-10 renal, with SF-268 CNS and in the experiment with SF-539 CNS was over 100 µM throughout. The TGI in the experiment on ACHN renal and with UACC-62 melanoma was over 100 µM in each case.

On to `CSc1c(C#N)c(S)n(-c2ccc(Cl)cc2)c(=O)c1C#N`, for which the TGI in the experiment with A549 NSCLC, in the experiment on HCT-15 colon, in the experiment with SR leukemia, with M14 melanoma, with HCT-116 colon and in the experiment with NCI-H226 lung was over 100 µM in each case. The TGI is 95.8 µM in the experiment on UO-31 renal; over 100 µM with CCRF-CEM leukemia; over 100 µM in the experiment on A498 renal; over 100 µM with SK-MEL-2 melanoma; over 100 µM in the experiment with SN12C renal; over 100 µM with MCF7 breast. In addition, the TGI in the experiment with EKVX NSCLC, in the experiment on HCC-2998 colon, in the experiment with SK-MEL-5 melanoma, in the experiment on TK-10 renal, in the experiment on SF-268 CNS and in the experiment on SF-539 CNS was over 100 µM throughout. Moreover, the TGI with UACC-62 melanoma was over 100 µM.

With `COc1ccc(NC(=O)C(=O)Cc2nc3ccc(C(=O)c4ccccc4)cc3[nH]c2=O)c([N+](=O)[O-])c1`, the TGI was over 100 µM with A549 NSCLC; over 100 µM in the experiment with HCT-15 colon; 51.1 µM in the experiment with SR leukemia; over 100 µM with M14 melanoma; over 100 µM with HCT-116 colon; 39.8 µM in the experiment with NCI-H226 lung. Besides, the TGI with UO-31 renal is 67.6 µM; in the experiment with CCRF-CEM leukemia, 61.4 µM; with A498 renal it was 54.8 µM; in the experiment with SK-MEL-2 melanoma, over 100 µM; in the experiment on SN12C renal, over 100 µM; in the experiment with MCF7 breast it was over 100 µM. The TGI in the experiment on EKVX NSCLC was over 100 µM; in the experiment on HCC-2998 colon it was over 100 µM; with SK-MEL-5 melanoma, 68.8 µM; in the experiment with TK-10 renal it was over 100 µM; with SF-268 CNS, over 100 µM; with SF-539 CNS, over 100 µM. In addition, the results for the TGI in the experiment on ACHN renal and in the experiment with UACC-62 melanoma were over 100 µM and 78.5 µM, respectively.

For the compound `O=c1n(-c2ccccc2)c(=O)n2c(-c3ccccc3)c(-c3ccccc3)n12`, the TGI in the experiment with A549 NSCLC, in the experiment with HCT-15 colon, with SR leukemia, with M14 melanoma, in the experiment on HCT-116 colon and in the experiment on NCI-H226 lung was over 100 µM in each case. For the same compound, the TGI with UO-31 renal, in the experiment on CCRF-CEM leukemia, in the experiment on A498 renal, in the experiment on SK-MEL-2 melanoma, with SN12C renal and in the experiment on MCF7 breast was over 100 µM throughout. In addition, the TGI in the experiment with EKVX NSCLC, in the experiment on HCC-2998 colon, with SK-MEL-5 melanoma, with TK-10 renal, in the experiment with SF-539 CNS and in the experiment on ACHN renal was over 100 µM throughout. Moreover, the TGI with UACC-62 melanoma is over 100 µM.

`CC(=O)O[C@@H]1[C@H]2[C@@H](OC(=O)c3ccccc3)[C@@H](C)C[C@]2(O)[C@H](OC(C)=O)[C@@]2(C)[C@@H]3C[C@@](C)(OC(C)=O)C[C@@H](OC(C)=O)[C@@]3(OC(C)=O)C[C@@]12C`: the TGI in the experiment on HCT-15 colon, with SR leukemia, with M14 melanoma, with HCT-116 colon, in the experiment with NCI-H226 lung and with UO-31 renal was over 10 µM in each case. The TGI in the experiment on CCRF-CEM leukemia, in the experiment with A498 renal, in the experiment with SK-MEL-2 melanoma, in the experiment on SN12C renal, in the experiment on MCF7 breast and with EKVX NSCLC was over 10 µM in each case. Moreover, the TGI in the experiment on HCC-2998 colon, in the experiment on SK-MEL-5 melanoma, with TK-10 renal, in the experiment with SF-268 CNS, with SF-539 CNS and in the experiment with ACHN renal was over 10 µM each time. For the same compound, the TGI in the experiment with UACC-62 melanoma is over 10 µM.

Turning to `COc1ccc(NC/C=C/C(=C/COC(C)=O)OC(C)=O)cc1`, the TGI was determined as 33 µM with A549 NSCLC; 5.1 µM in the experiment on HCT-15 colon; 2.71 µM in the experiment with SR leukemia; 3.19 µM with M14 melanoma; 3.55 µM in the experiment with HCT-116 colon; 51.7 µM in the experiment on NCI-H226 lung. In addition, the TGI in the experiment with UO-31 renal was 25 µM; in the experiment with CCRF-CEM leukemia, 5.12 µM; in the experiment on A498 renal, 3.53 µM; in the experiment on SK-MEL-2 melanoma, 5.58 µM; with MCF7 breast, over 100 µM; in the experiment on EKVX NSCLC, 4.99 µM. Moreover, the TGI was 6.84 µM with HCC-2998 colon; 28.8 µM with SK-MEL-5 melanoma; 3.74 µM in the experiment on TK-10 renal; 6.52 µM in the experiment on SF-268 CNS; 3.8 µM in the experiment on SF-539 CNS; 3.29 µM with ACHN renal. Further, the TGI in the experiment with UACC-62 melanoma was determined as 14.5 µM.
